In US7906554B2, “Combination chemotherapy compositions and methods” (Novogen Research Pty Ltd, priority 2002, dated 2011):
Read-outs that look alike come from different tables or passages of the source.

Assays:
CP70 [1] = test: In vivo CP70 tumour injected subcutaneously into nude mice; conditions: cisplatin 0.5 mg/kg alone
Protocol: (§1) The in vitro studies were performed using ovarian cancer cells isolated from ascites using an immunomagnetic assay and established ovarian cancer cell lines CP70 and A2780. Cell viability was determined using CellTiter©. Apoptosis was evaluated using Hoechst 33342 dye. The in vivo effect was tested by injecting CP70 subcutaneously into nude mice. Animals received daily oral administration of dehydroequol, 10 or 20 mg/kg for 8 days alone or in combination with cisplatin 0.5 mg/kg. After 8 days the animals were sacrificed and the tumour volume was measured.

PC3 = test: Cell viability (CellTiter), concurrent dehydroequol and cisplatin; format: cell-based
Protocol: (§2) The effect of a composition comprising the platinum complex cisplatin and the isoflavonoid compound dehydroequol (compound No. 12) on various cancer cell lines was assessed on culture plates. Cell viability was determined using CellTiter©. Apoptosis was evaluated using Hoechst 33342 dye.

CP70 [2] = test: as above; format: cell-based
Protocol: as §2

DU145 = test: as above; format: cell-based
Protocol: as §2

A2780 = test: as above; format: cell-based
Protocol: as §2

HPAC = test: as above; format: cell-based
Protocol: as §2

[3] = tested on: carboplatin and paclitaxel resistant cells; test: Decrease in cell viability in chemoresistant cells; format: cell-based
Protocol: as §1

[4] = tested on: ovarian cancer cells isolated from ascites and ovarian cancer cell lines CP70 and A2780; test: Cell viability (CellTiter) of ovarian cancer cells with or without dehydroequol pre-treatment; format: cell-based
Protocol: as §1

caspase 3 = test: Western blot analysis of resistant ovarian cancer cells; format: cell-based; conditions: chemoresistant cells, only after pre-treatment with dehydroequol (FIG. 5)
Source text: FIG. 5 represents a Western Blot analysis of carboplatin or paclitaxel treatment resistant ovarian cancer CP70 cells with and without dehydroequol pre-treatment.
Additionally, the active form of caspase 3 in chemoresistant cells was not detected.

[5] = tested on: paclitaxel resistant cell line, R182; test: Cell viability (CellTiter), paclitaxel resistant cell line; format: cell-based; conditions: R182, no pre-treatment (FIG. 2)
Protocol: as §1

## N.N.[Cl][Pt][Cl] [Cisplatin, cis-diamminedichloroplatinum (II)]
CP70 [1]
  effect on tumour size: no effect
PC3; PC3, co-incubation with 2 uM dehydroequol, read-out: Cisplatin IC50 +2 uM dehydroequol
  IC50: < 0.001 µM
PC3; PC3, single agent, read-out: IC50
  IC50: 0.4 µM
CP70 [2]; CP70, co-incubation with 2 uM dehydroequol, read-out: Cisplatin IC50 +2 uM dehydroequol
  IC50: 0.1 µM
CP70 [2]; CP70, single agent, read-out: IC50
  IC50: 10.4 µM
DU145; DU145, co-incubation with 2 uM dehydroequol, read-out: Cisplatin IC50 +2 uM dehydroequol
  IC50: 0.1 µM
DU145; DU145, single agent, read-out: IC50
  IC50: 5 µM
A2780; A2780, co-incubation with 2 uM dehydroequol, read-out: Cisplatin IC50 +2 uM dehydroequol
  IC50: < 0.001 µM
A2780; A2780, single agent, read-out: IC50
  IC50: 3 µM
HPAC; co-incubation with 2 uM dehydroequol, read-out: Cisplatin IC50 +2 uM dehydroequol
  IC50: 7.7 µM
HPAC; single agent, read-out: IC50
  IC50: 34.5 µM

## N.N.O=C([O-])C1(C(=O)[O-])CCC1.[Pt+2] [carboplatin]
[3]; pre-treatment (2 h) with DHE followed by the agent for 48 h
  decrease in cell viability: 30%
[4]; pre-treatment with dehydroequol (10 μg/ml) for two hours, +/−0.5 (FIG. 3)
  IC50 for carboplatin after dehydroequol pre-treatment: 0.5 µg/mL

## Oc1ccc(C2=Cc3ccc(O)cc3OC2)cc1 [dehydroequol]
[3]; pre-treatment alone for 2 h
  decrease in cell viability: 20%
[3]; treatment for 48 hours
  decrease in cell viability: 60-80%
Caspase 3
  Caspase 3 activation: Caspase 3 activation was observed
PC3; Homo sapiens, PC-3
  IC50: 9.6 µM
CP70 [2]
  IC50: 1.5 µM
DU145; Homo sapiens, DU-145
  IC50: 5.9 µM
A2780; Homo sapiens, A2780
  IC50: 1.7 µM
HPAC; Homo sapiens
  IC50: 50 µM

## CC(=O)O[C@H]1C(=O)[C@@]2(C)[C@H]([C@H](OC(=O)c3ccccc3)[C@]3(O)C[C@H](OC(=O)[C@H](O)[C@@H](NC(=O)c4ccccc4)c4ccccc4)C(C)=C1C3(C)C)[C@]1(OC(C)=O)CO[C@@H]1C[C@@H]2O [paclitaxel]
[4]; Homo sapiens, A2780, pre-treatment with dehydroequol (10 μg/ml) for two hours (FIG. 4), read-out: IC50 for paclitaxel after dehydroequol pre-treatment
  IC50: 0.05 µM
[5]
  IC50: > 2 µM
